# Test results: ChEMBL document CHEMBL4346757, “Synthesis and biological evaluation of 7-methoxy-1-(3,4,5-trimethoxyphenyl)-4,5-dihydro-2H-benzo[e]indazoles as new colchicine site inhibitors” (Bioorg Med Chem Lett, 2019)
# Key:
# Format in all cases: functional
# SF-539 [1] = assay: Growth inhibition of human SF539 cells assessed as cell growth at 0.01 uM after 48 hrs by SRB assay relative to control; conditions: SF-539, 48 h, read-out: Activity
# RXF 393 = assay: Cytotoxicity against human RXF393 cells assessed as growth inhibition after 48 hrs by SRB assay; conditions: RXF 393, 48 h
# MOLT-4 = assay: Cytotoxicity against human MOLT4 cells assessed as growth inhibition after 48 hrs by SRB assay; conditions: MOLT-4, 48 h
# 786-0 [2] = assay: Cytotoxicity against human 786-0 cells assessed as growth inhibition after 48 hrs by SRB assay; conditions: 786-0, 48 h
# A549 [3] = assay: Growth inhibition of human A549/ATCC cells assessed as cell growth at 0.01 uM after 48 hrs by SRB assay relative to control; conditions: A549, 48 h, read-out: Activity
# PC-3 = assay: Growth inhibition of human PC3 cells assessed as cell growth at 1 uM after 48 hrs by SRB assay relative to control; conditions: PC-3, 48 h, read-out: Activity
# MCF7 [4] = assay: Growth inhibition of human MCF7 cells assessed as cell growth at 0.01 uM after 48 hrs by SRB assay relative to control; conditions: MCF7, 48 h, read-out: Activity
# KM12 = assay: Growth inhibition of human KM12 cells assessed as cell growth at 10 uM after 48 hrs by SRB assay relative to control; conditions: KM12, 48 h, read-out: Activity
# M14 = assay: Growth inhibition of human M14 cells assessed as cell growth at 0.01 uM after 48 hrs by SRB assay relative to control; conditions: M14, 48 h, read-out: Activity
# SN12C = assay: Growth inhibition of human SN12C cells assessed as cell growth at 0.01 uM after 48 hrs by SRB assay relative to control; conditions: read-out: Activity
# LOX IMVI [5] = assay: Growth inhibition of human LOXIMVI cells assessed as cell growth at 100 uM after 48 hrs by SRB assay relative to control; conditions: read-out: Activity
# BT-549 = assay: Growth inhibition of human BT549 cells assessed as cell growth at 1 uM after 48 hrs by SRB assay relative to control; conditions: BT-549, 48 h, read-out: Activity
# MCF7 [6] = assay: Growth inhibition of human MCF7 cells assessed as cell growth at 100 uM after 48 hrs by SRB assay relative to control; conditions: MCF7, 48 h, read-out: Activity
# 786-0 [7] = assay: Growth inhibition of human 786-0 cells assessed as cell growth at 0.1 uM after 48 hrs by SRB assay relative to control; conditions: 786-0, 48 h, read-out: Activity
# SR = assay: Growth inhibition of human SR cells assessed as cell growth at 10 uM after 48 hrs by SRB assay relative to control; conditions: read-out: Activity
# HT-29 = assay: Growth inhibition of human HT-29 cells assessed as cell growth at 0.01 uM after 48 hrs by SRB assay relative to control; conditions: HT-29, 48 h, read-out: Activity
# NCI/ADR-RES = assay: Growth inhibition of human NCI-ADR-RES cells assessed as cell growth at 0.1 uM after 48 hrs by SRB assay relative to control; conditions: read-out: Activity
# SF-539 [8] = assay: Growth inhibition of human SF539 cells assessed as cell growth at 1 uM after 48 hrs by SRB assay relative to control; conditions: SF-539, 48 h, read-out: Activity
# MCF7 [9] = assay: Growth inhibition of human MCF7 cells assessed as cell growth at 0.1 uM after 48 hrs by SRB assay relative to control; conditions: MCF7, 48 h, read-out: Activity
# SF-539 [10] = assay: Growth inhibition of human SF539 cells assessed as cell growth at 10 uM after 48 hrs by SRB assay relative to control; conditions: SF-539, 48 h, read-out: Activity
# MDA-MB-231 = assay: Growth inhibition of human MDA-MB-231/ATCC cells assessed as cell growth at 100 uM after 48 hrs by SRB assay relative to control; conditions: MDA-MB-231, 48 h, read-out: Activity
# UACC-62 = assay: Growth inhibition of human UACC62 cells assessed as cell growth at 10 uM after 48 hrs by SRB assay relative to control; conditions: UACC-62, 48 h, read-out: Activity
# HCT-15 = assay: Growth inhibition of human HCT15 cells assessed as cell growth at 100 uM after 48 hrs by SRB assay relative to control; conditions: HCT-15, 48 h, read-out: Activity
# CAKI-1 = assay: Growth inhibition of human Caki1 cells assessed as cell growth at 100 uM after 48 hrs by SRB assay relative to control; conditions: CAKI-1, 48 h, read-out: Activity
# Malme-3M = assay: Growth inhibition of human MALME-3M cells assessed as cell growth at 0.01 uM after 48 hrs by SRB assay relative to control; conditions: read-out: Activity
# UACC-257 = assay: Growth inhibition of human UACC257 cells assessed as cell growth at 10 uM after 48 hrs by SRB assay relative to control; conditions: UACC-257, 48 h, read-out: Activity
# COLO 205 [11] = assay: Growth inhibition of human COLO205 cells assessed as cell growth at 0.1 uM after 48 hrs by SRB assay relative to control; conditions: COLO 205, 48 h, read-out: Activity
# SNB-75 = assay: Growth inhibition of human SNB75 cells assessed as cell growth at 1 uM after 48 hrs by SRB assay relative to control; conditions: SNB-75, 48 h, read-out: Activity
# A549 [12] = assay: Growth inhibition of human A549/ATCC cells assessed as cell growth at 1 uM after 48 hrs by SRB assay relative to control; conditions: A549, 48 h, read-out: Activity
# COLO 205 [13] = assay: Growth inhibition of human COLO205 cells assessed as cell growth at 1 uM after 48 hrs by SRB assay relative to control; conditions: COLO 205, 48 h, read-out: Activity
# HCC 2998 = assay: Cytotoxicity against human HCC2998 cells assessed as growth inhibition after 48 hrs by SRB assay; conditions: HCC 2998, 48 h
# LOX IMVI [14] = assay: Growth inhibition of human LOXIMVI cells assessed as cell growth at 0.1 uM after 48 hrs by SRB assay relative to control; conditions: read-out: Activity
# NCI-H460 = assay: Growth inhibition of human NCI-H460 cells assessed as cell growth at 100 uM after 48 hrs by SRB assay relative to control; conditions: NCI-H460, 48 h, read-out: Activity
# SF-539 [15] = assay: Growth inhibition of human SF539 cells assessed as cell growth at 100 uM after 48 hrs by SRB assay relative to control; conditions: SF-539, 48 h, read-out: Activity
# [16] = read-out: LC50 (the source's name)
# [17] = read-out: pLC50 (the source's name) (converted)
smiles,measurement,setting,value
COc1ccc2c(c1)CCc1n[nH]c(-c3cc(OC)c(OC)c(OC)c3)c1-2,growth at 0.01 µM,SF-539 [1],-12%
same,GI50,RXF 393; read-out: GI50,< 0.01 µM
same,CC50,RXF 393; [16],51.3 µM
same,GI50,RXF 393; read-out: pGI50 (converted),< 0.01 µM
same,CC50,RXF 393; [17],51.3 µM
same,GI50,MOLT-4; read-out: GI50,< 0.01 µM
same,CC50,MOLT-4; [16],> 100 µM
same,TGI,MOLT-4; read-out: TGI,> 100 µM
same,GI50,MOLT-4; read-out: pGI50 (converted),< 0.01 µM
same,CC50,MOLT-4; [17],> 100 µM
same,TGI,MOLT-4; read-out: pTGI,> 100 µM
same,GI50,786-0 [2]; read-out: GI50,< 0.01 µM
same,CC50,786-0 [2]; [16],> 100 µM
same,TGI,786-0 [2]; read-out: TGI,11.5 µM
same,GI50,786-0 [2]; read-out: pGI50 (converted),< 0.01 µM
same,CC50,786-0 [2]; [17],> 100 µM
same,TGI,786-0 [2]; read-out: pTGI (converted),11.5 µM
same,growth at 0.01 µM,A549 [3],14%
same,growth at 1 µM,PC-3,18%
same,growth at 0.01 µM,MCF7 [4],17%
same,growth at 10 µM,KM12,6%
same,growth at 0.01 µM,M14,2%
same,growth at 0.01 µM,SN12C,39%
same,growth at 100 µM,LOX IMVI [5],-91%
same,growth at 1 µM,BT-549,3%
same,growth at 100 µM,MCF7 [6],-38%
same,growth at 0.1 µM,786-0 [7],17%
same,growth at 10 µM,SR,9%
same,growth at 0.01 µM,HT-29,5%
same,growth at 0.1 µM,NCI/ADR-RES,-21%
same,growth at 1 µM,SF-539 [8],-12%
same,growth at 0.1 µM,MCF7 [9],14%
same,growth at 10 µM,SF-539 [10],-24%
same,growth at 100 µM,MDA-MB-231,-18%
same,growth at 10 µM,UACC-62,10%
same,growth at 100 µM,HCT-15,-41%
same,growth at 100 µM,CAKI-1,-20%
same,growth at 0.01 µM,Malme-3M,46%
same,growth at 10 µM,UACC-257,56%
same,growth at 0.1 µM,COLO 205 [11],-46%
same,growth at 1 µM,SNB-75,39%
same,growth at 1 µM,A549 [12],11%
same,growth at 1 µM,COLO 205 [13],-56%
same,GI50,HCC 2998; read-out: GI50,< 0.01 µM
same,CC50,HCC 2998; [16],44.3 µM
same,TGI,HCC 2998; read-out: TGI,11.4 µM
same,GI50,HCC 2998; read-out: pGI50 (converted),< 0.01 µM
same,CC50,HCC 2998; [17],44.7 µM
same,TGI,HCC 2998; read-out: pTGI (converted),11.5 µM
same,growth at 0.1 µM,LOX IMVI [14],16%
same,growth at 100 µM,NCI-H460,-59%
same,growth at 100 µM,SF-539 [15],-78%
